Experimental data from the supplement of paper PMC11451515.

Tested on: NOMO1
Experiment: cell viability relative to DMSO control; higher = less cytotoxic
Settings: 48 h
In short: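 In 1536-well plates, 5 μl of leukemia cells were seeded per well: 500 cells/well for NOMO1 or SEM and 1000 cells/well for P12-Ichikawa. Each line had first been adapted for at least four passages in each medium. Library compounds in DMSO were pin-dosed at 11 threefold concentrations between 47 μM and 0.79 nM, and CellTiter-Glo One luminescence was read after 48 h at 37°C. Viability is a per-plate percentage relative to DMSO wells, with cell-free wells as background.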

C=CC1=C(C(=O)O)N2C(=O)[C@@H](NC(=O)/C(=N\O)c3csc(N)n3)[C@H]2SC1
cell viability [%]
Settings | HPLM + 10% dialyzed FBS | RPMI 5 mM glucose + 10% FBS | RPMI 5 mM glucose + 10% dialyzed FBS
0.000781 µM | 82.9 | 104 | 98.2
0.00234 µM | 110 | 119 | 105
0.00702 µM | 119 | 124 | 115
0.0211 µM | 102 | 118 | 118
0.0632 µM | 123 | 117 | 119
0.19 µM | 109 | 127 | 125
0.569 µM | 129 | 116 | 140
1.71 µM | 129 | 120 | 124
5.12 µM | 110 | 125 | 121
15.4 µM | 113 | 134 | 109
46.1 µM | 118 | 138 | 107
